Results: US6894185B2, “Substituted chiral allosteric hemoglobin modifiers” (Allós Therapeutics, Inc., priority 1999, dated 2005)
Where “and” joins values, the source holds several entries; their conditions need not be identical. Equal entries are not always repeated.

How the values were obtained:
hemoglobin = target: T1, hemoglobin (Homo sapiens, UniProt P68871+P69905); test: In vitro whole blood studies (multi-point tonometry and blood gas analysis); type: cell-based; details: for Whole Blood Δp50 mm Hg: Table II; for ΔP50 ± S.D. (P50 effector − P50control) / P50e (P50 value in the presence of the effector): Table VI, 2.5 mM Hb, 5.0 mM effector; for P50e (P50 value in the presence of the effector): single runs, DMSO stock
T1 construct: The whole blood samples were collected in heparinized tubes from healthy volunteers; from tissue; host or cells: human whole blood (heparinized) from healthy volunteers
T1 sequence (P69905 2-142 limits assumed): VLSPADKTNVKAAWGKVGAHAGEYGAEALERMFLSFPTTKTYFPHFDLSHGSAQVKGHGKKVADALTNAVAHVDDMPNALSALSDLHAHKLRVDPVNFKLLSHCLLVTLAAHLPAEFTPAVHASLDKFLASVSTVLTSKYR
T1 sequence (P68871 2-147 limits assumed): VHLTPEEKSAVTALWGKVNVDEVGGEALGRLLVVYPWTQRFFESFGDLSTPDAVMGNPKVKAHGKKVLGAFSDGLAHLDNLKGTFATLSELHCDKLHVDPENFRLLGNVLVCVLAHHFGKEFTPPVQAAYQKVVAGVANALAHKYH
Experimental: (§1) Structure-allosteric activity relationships were determined from the synthetic chiral effectors comparing the shift in the oxygen binding curve of Hb solutions using a Hemox-Analyzer. In vitro biological activity testing in the presence of plasma proteins was also performed on selected enantiomers and racemates (multi-point tonometry and blood gas analysis) to screen for candidates with potential clinical use. SAR studies compared the degree in shift in P50 values, i.e., the partial pressure of molecular oxygen necessary to half-saturate hemoglobin. An effector that decreases Hb oxygen affinity increases the P50 value relative to the control. Thus, the activity or potency of each analog could be expressed by the ratio P50 (effector)/P50(control). Tables and II and III summarize the p50 values obtained using human whole blood, while Tables IV and V summarize the P50 and the Hill coefficient values (n50) at half-saturation obtained using Hemox-analyzer. The slope of the log of the oxygen binding curves is known as the Hill coefficient. The Hill coefficient measures the degree of cooperativity in binding for an allosteric protein, the normal range for human blood is 2.7-3.2. Table VI presents the results from the whole blood studies given as a ΔP50 and Hill coefficient (n50) values for the enantiomers and racemates.
The whole blood samples were collected in heparinized tubes from healthy volunteers and stored over ice. The sodium salts of the compounds were prepared as described earlier. A 200 mM stock solution of the effector was prepared in DMSO. A 5.0 mM test solution was prepared from 50 μL of the 200 mM test solution and 1950 μL of whole blood. The blood samples were incubated in IL 237 tonometers (Instrumentation Laboratories, Inc. Lexington, Mass.) for approximately 10-12 min at 37° C. and equilibrated at three separate concentrations of O2 (20%, 40%, and 60%). After equilibration at each concentration of O2, a sample was removed via syringe and aspirated into a IL 1420 Automated Blood Gas Analyzer (Instrumentation Laboratories, Inc. Lexington, Mass.) and a IL 482 and IL 682 Co-oximeter (Instrumentation Laboratories, Inc. Lexington, Mass.) to determine the pH, pCO2, pO2 and the hemoglobin oxygen saturation values (sO2), respectively. The measured values for pO2 and sO2 at each oxygen saturation level were then subjected to a non-linear regression analysis using the program Scientist (Micromath, Salt Lake City, Utah) to calculate the P50 and Hill coefficient values.

[1] = target: T2, purified stripped human adult hemoglobin (Homo sapiens, UniProt P68871+P69905); test: Hemoglobin solution oxygen equilibrium studies (HEMOX-analyzer); type: biochemical; details: for n50 (Hill coefficient at 50% saturation): n50 control 2.7; for P50e/P50c: ratio to P50 control with no effector (5.0 mmHg)
T2 construct: using purified stripped human adult hemoglobin as described previously; from tissue
T2 sequence (P69905 2-142 limits assumed): as the sequence (P69905 2-142 limits assumed) above
T2 sequence (P68871 2-147 limits assumed): as the sequence (P68871 2-147 limits assumed) above
Experimental: as §1, with “Tables and II and III summarize the p50 values obtained using human whole blood, while Tables IV and V summarize the P50 and the Hill coefficient values (n50) at half-saturation obtained using Hemox-analyzer.” left out, “2.7-3.2.” for “2.7-3.2. Table VI presents the results from the whole blood studies given as a ΔP50 and Hill coefficient (n50) values for the enantiomers and racemates.”
The effectors were prepared as 10 mM stock solutions in 100 mM NaCl bis-Tris buffer, pH 7.2. After the addition of an excess of NaHCO3, the solution was warmed to 60° C. and stirred for several hours. The solutions were back titrated carefully to pH 7.2 at 25° C. prior to use. Oxygen equilibrium measurements were performed with the HEMOX-analyzer (TCS Medical products, Southampton, Pa.) using purified stripped human adult hemoglobin as described previously. 4 mL of buffer, 100 mM NaCl, 50 mM bis-Tris at pH 7.2, is added to a cuvette in the HEMOX, followed by 200 μL of the 10 mM effector stock solution. Hemoglobin is then added to achieve a final Hb concentration of […] on heme basis. Catalase (20 μg/mL) and 50 mM EDTA were added to limit oxidation of the hemes. […] The saturation of hemoglobin was determined spectrophotometrically with a dual wavelength spectrophotometer (577 nm and 586.2 nm). The solution was stirred constantly during the 45-60 min recordings. The P50 and n50 values were calculated by linear regression analysis from data points comprised between 40 and 60% oxygen saturation.

[2] = target: T2, purified stripped human adult hemoglobin; test: as above; type: biochemical; details: 0.5 mM effector, 100 mM bis-Tris buffer, pH 7.2
[3] = Table IV, 0.5 mM effector, pH 7.2
[4] = Table V resolved enantiomers, 0.5 mM effector, pH 7.2

Whole Blood Δp50 mm Hg (hemoglobin) | ΔP50 ± S.D. (P50 effector − P50control) (hemoglobin) | P50e (P50 value in the presence of the effector) (hemoglobin) | n50 (Hill coefficient at 50% saturation) [1, 3] | P50e/P50c [1, 3] | P50e (oxygen pressure at which Hb is 50% saturated with oxygen in the presence of the effector) ([2]; Table IV) | SMILES | n50 (Hill coefficient at 50% saturation) [1, 4] | P50e/P50c ([1]; Table V resolved enantiomers) | P50e (oxygen pressure at which Hb is 50% saturated with oxygen in the presence of the effector) ([2]; Table V resolved enantiomers)
45.4 mm Hg | 40.1 ± 0.9 mmHg | 66 mmHg and 67.2 mmHg | 2.3 | 4.3 | 22 mmHg | Cc1cc(C)cc(NC(=O)Cc2ccc(OC3(C(=O)O)CCCC3C)cc2)c1 (racemic) [Compound 1, 1-[4-[[(3,5-dimethylanilino)carbonyl]methyl]phenoxy]-2-methylcyclopentane carboxylic acid] | – | – | –
– | 18.2 ± 2.6 mmHg | 47.2 mmHg and 43.5 mmHg | 2.6 | 1.9 | 9.3 mmHg | Cc1cc(C)cc(NC(=O)Cc2ccc(OC(C)C(=O)O)cc2)c1 (racemic) [Compound 18, 2-[4-[[(3,5-dimethylanilino)carbonyl]methyl]phenoxy]-propionic acid] | – | – | –
– | 20.7 ± 0.7 mmHg | 47.4 mmHg and 48.7 mmHg | – | – | – | Cc1cc(C)cc(NC(=O)Cc2ccc(OC(C)C(=O)O)cc2)c1 (single isomer, unassigned; (+)) [(+) 18, (+)-2-[4-[[(3,5-dimethylanilino)carbonyl]methyl]phenoxy]-propionic acid] | 2.6 | 2 | 9.8 mmHg
– | – | – | – | – | – | CCC(Oc1ccc(CC(=O)Nc2cc(C)cc(C)c2)cc1)C(=O)O (single isomer, unassigned; (+)) [(+) 20] | 2.7 | 3.6 | 18 mmHg
– | 12.3 ± 0.6 mmHg | 39.7 mmHg and 40.5 mmHg | – | – | – | Cc1cc(C)cc(NC(=O)Cc2ccc(OC(C)C(=O)O)cc2)c1 (single isomer, unassigned; (-)) [(−) 18, (−)-2-[4-[[(3,5-dimethylanilino)carbonyl]methyl]phenoxy]-propionic acid] | 2.5 | 1.3 | 6.6 mmHg
– | – | – | – | – | – | CCC(Oc1ccc(CC(=O)Nc2cc(C)cc(C)c2)cc1)C(=O)O (single isomer, unassigned; (-)) [(−) 20] | 2.8 | 2 | 9.8 mmHg
15.2 mm Hg | – | – | 2.4 | 1.5 | 7.6 mmHg | Cc1cc(C)cc(NC(=O)Cc2ccc(OC3(C(=O)O)CCOC3C)cc2)c1 (stereo not shown) [Compound 2, 3-[4-[[(3,5-dimethylanifino)carbonyl]methyl]phenoxy]-2-methyltetrahydro-3-furan carboxylic acid] | – | – | –
20.3 mm Hg | – | – | 2.5 | 2.6 | 13 mmHg | Cc1cc(C)cc(NC(=O)Cc2ccc(OC3(C(=O)O)CCC(C)C3)cc2)c1 (stereo not shown) [Compound 3] | – | – | –
17.8 mm Hg | – | – | 2.4 | 1.5 | 7.6 mmHg | Cc1cc(C)cc(NC(=O)Cc2ccc(OC3(C(=O)O)CCOCC3)cc2)c1 [Compound 4, 4-[4-[[(3,5-dimethylanilino)carbonyl]methyl]phenoxy]tetrahydro-2H-4-pyrancarboxylic acid] | – | – | –
12.7 mm Hg | – | – | 2.6 | 2.5 | 13 mmHg | CC1CCC(Oc2ccc(CC(=O)Nc3ccc4c(c3)CCC4)cc2)(C(=O)O)C1 (stereo not shown) [Compound 5] | – | – | –
25.6 mm Hg | – | – | 2.7 | 2.3 | 12 mmHg | CCCC(C)(Oc1ccc(CC(=O)Nc2cc(C)cc(C)c2)cc1)C(=O)O (stereo not shown) [Compound 6, 2-[4-[[(3,5-dimethylanilino)carbonyl]methyl]phenoxy]-2-methylpentanoic acid] | – | – | –
25.0 mm Hg | – | – | 2.6 | 2.8 | 14 mmHg | CC1CCCC1(Oc1ccc(CC(=O)Nc2ccc3c(c2)CCC3)cc1)C(=O)O (stereo not shown) [Compound 7] | – | – | –
25 mm Hg | – | – | 2.4 | 4.4 | 22 mmHg | Cc1cc(Cl)cc(NC(=O)Cc2ccc(OC3(C(=O)O)CCCC3C)cc2)c1 (stereo not shown) [Compound 8, 1-[4-[[(3-chloro-5-methylanilino)carbonyl]methyl]phenoxy]-2-methylcyclopentane carboxylic acid] | – | – | –
– | – | – | 2.5 | 1.2 | 5.9 mmHg | Cc1cc(C)cc(NC(=O)Cc2ccc(OC(F)C(=O)O)cc2)c1 (stereo not shown) [Compound 19, 2-[4-[[3,5-dimethylanilino)carbonyl]methyl]phenoxy-2-fluoroacetic acid] | – | – | –
– | – | – | 2.4 | 2.7 | 13 mmHg | CCC(C)(Oc1ccc(CC(=O)Nc2cc(C)cc(C)c2)cc1)C(=O)O (stereo not shown) [Compound 21, 2-[4-[[(3,5-dimethylanilino)carbonyl]methyl]phenoxy]-2-methylbutanoic acid] | – | – | –
– | – | – | 2.4 | 4.4 | 21 mmHg | Cc1cc(Cl)cc(NC(=O)Cc2ccc(OC(C)(C)C(=O)O)cc2)c1 [KDD86, reference compound] | – | – | –
– | – | – | 2.6 | 3 | 15 mmHg | CC(C)(Oc1ccc(CC(=O)Nc2ccc3c(c2)CCC3)cc1)C(=O)O [RSR46, reference compound] | – | – | –

SMILES | Whole Blood Δp50 mm Hg (hemoglobin) | ΔP50 ± S.D. (P50 effector − P50control) (hemoglobin) | P50e (P50 value in the presence of the effector) (hemoglobin) | n50 (Hill coefficient at 50% saturation) [1, 3] | P50e/P50c [1, 3] | P50e (oxygen pressure at which Hb is 50% saturated with oxygen in the presence of the effector) ([2]; Table IV) | n50 (Hill coefficient at 50% saturation) [1, 4] | P50e/P50c ([1]; Table V resolved enantiomers) | P50e (oxygen pressure at which Hb is 50% saturated with oxygen in the presence of the effector) ([2]; Table V resolved enantiomers)
CCC(Oc1ccc(CC(=O)Nc2cc(C)cc(C)c2)cc1)C(=O)O (racemic) [Compound 20, 2-[4-[[(3,5-dimethylanilino)carbonyl]methyl]phenoxy]-butanoic acid] | – | – | – | 2.7 | 2.6 | 13 mmHg | – | – | –
